Laboratory results taken from ChEMBL document CHEMBL1201862, “PubChem BioAssay data set” (2004).
Activity calls are given as the source filed them.

Assays:
[1] = test system: A549; test: viability loss in A549 cells – cell-based, plate reader, cherry-pick samples, cytotoxicity control, dose response (AID 687028); type: functional; conditions: Homo sapiens
[2] = activation of miR-122 Renilla sensor silencing – cell-based, Huh7 psiCHECK-miR122, Renilla luciferase, cherry-picked, dose response (AID 651956); type: functional;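 further: huh7 hepatoma cells stably carrying a psiCHECK-2 miR-122 sensor plasmid; renilla luciferase signal reporting endogenous miR-122 activity after 48 h compound exposure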
[3] = biological target: T1, Caspase-6 (Homo sapiens, UniProt P55212); test: inhibition of CASP6 peptide cleavage – biochemical, VEID-R110 fluorescence, dry powder retest, dose response (AID 743332)
T1 sequence (P55212 whole entry): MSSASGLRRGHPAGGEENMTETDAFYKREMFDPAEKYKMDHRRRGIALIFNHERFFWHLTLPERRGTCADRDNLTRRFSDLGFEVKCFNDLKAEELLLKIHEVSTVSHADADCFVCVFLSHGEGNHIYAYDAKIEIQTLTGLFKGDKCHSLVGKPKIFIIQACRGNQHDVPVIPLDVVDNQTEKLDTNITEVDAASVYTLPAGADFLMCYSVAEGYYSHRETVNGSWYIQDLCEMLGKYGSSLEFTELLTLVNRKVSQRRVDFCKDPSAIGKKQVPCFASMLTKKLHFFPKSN

[4] = viability loss in HepG2 hepatoma cells – cell-based, cherry-picks, set 5, cytotoxicity control, dose response (AID 1053118); type: functional
[5] = viability loss in HEK293 kidney cells – cell-based, cherry-picks, set 5, cytotoxicity control, dose response (AID 1053117); type: functional
[6] = human cervical cancer cell viability loss – 24 h, plate reader, dry powder, cytotoxicity control, dose response (AID 686928); type: functional, cell-based; conditions: HeLa
[7] = viability loss in A549 lung cancer cells – cell-based, cherry-picks, […], cytotoxicity control, dose response (AID 1053119); type: functional
[8] = biological target: Potassium channel subfamily K member 3 (Homo sapiens, UniProt O14649); test: inhibition of human KCNK3 channel flux – CHO cells, FluxOR thallium flux, SAR follow-up (AID 652212); type: functional
Potassium channel subfamily K member 3, sequence (O14649 whole entry): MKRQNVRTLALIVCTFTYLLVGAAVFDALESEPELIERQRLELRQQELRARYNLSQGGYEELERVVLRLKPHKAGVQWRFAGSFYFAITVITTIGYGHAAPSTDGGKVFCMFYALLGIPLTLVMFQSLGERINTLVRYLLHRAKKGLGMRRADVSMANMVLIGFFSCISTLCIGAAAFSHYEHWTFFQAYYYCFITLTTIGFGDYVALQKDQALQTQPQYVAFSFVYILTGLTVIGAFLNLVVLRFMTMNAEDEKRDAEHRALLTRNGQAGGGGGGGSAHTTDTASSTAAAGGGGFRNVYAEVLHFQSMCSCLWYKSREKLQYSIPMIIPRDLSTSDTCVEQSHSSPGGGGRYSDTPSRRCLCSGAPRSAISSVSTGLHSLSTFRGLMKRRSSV

[9] = biological target: Potassium channel subfamily K member 9 (Homo sapiens, UniProt Q9NPC2); test: KCNK9 flux blockade, concentration-response – cell-based, FluxOR thallium flux, selectivity assay for TASK1 inhibitor project, SAR follow-up (AID 652211); type: functional;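 further: potency is for inhibitors of the channel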
Potassium channel subfamily K member 9, sequence (Q9NPC2 whole entry): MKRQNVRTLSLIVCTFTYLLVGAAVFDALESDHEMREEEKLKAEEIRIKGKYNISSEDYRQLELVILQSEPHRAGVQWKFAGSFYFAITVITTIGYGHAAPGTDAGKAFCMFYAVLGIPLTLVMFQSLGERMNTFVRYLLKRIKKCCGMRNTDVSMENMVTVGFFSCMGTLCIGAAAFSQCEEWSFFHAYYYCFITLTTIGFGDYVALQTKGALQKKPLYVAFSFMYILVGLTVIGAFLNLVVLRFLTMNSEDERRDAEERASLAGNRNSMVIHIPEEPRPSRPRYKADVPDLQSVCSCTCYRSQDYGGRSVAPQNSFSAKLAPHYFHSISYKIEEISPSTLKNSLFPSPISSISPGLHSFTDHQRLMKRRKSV

[10] = inhibition of bursicon-driven LGR2 cAMP signaling – cell-based, HEK293, CRE-luciferase reporter, cherry pick, dose response (AID 743342); type: functional

CCCCCCCCN1C(=O)[C@H](CC(=O)NCCC(C)C)C[C@@]2(C(=O)OCC)CCCC=C12
AC50 [1]: 21 µM (active)

C[C@H](CO)N1C[C@H](C)[C@H](CN(C)CC2CCCCC2)OCCCC[C@H](C)Oc2ccc(NC(=O)Nc3cccc4ccccc34)cc2C1=O
AC50 [2]: 3.25 µM (active)

O=C(c1ccc(-n2cccc2)cc1)N1CCN(S(=O)(=O)c2ccccc2)CC1
AC50 [3]: 23.9 µM (active)

C[C@@H]1CN([C@@H](C)CO)C(=O)c2cc(-c3ccccc3)cnc2O[C@H]1CN(C)Cc1ccccc1
AC50 [4]: > 52 µM (inactive)
AC50 [5]: > 52 µM (inactive)

CC(C)(C)COC(=O)CSc1n[nH]c(=O)[nH]c1=O
AC50 [6]: > 76 µM (inactive)

CN(C)C(=O)c1ccc(-c2ccc3c(c2)[C@H]2[C@H](CCN2C(=O)c2ccc(F)cc2)[C@H](CO)N3C)cc1
AC50 [7]: 43.6 µM (active)

CCOc1ccccc1NC(=O)c1cccc(NC(=O)c2ccc(C)cc2)c1
IC50 [8]: 0.134 µM (active)
IC50 [9]: 14.7 µM (active)

C[C@H](CO)N1C[C@H](C)[C@H](CN(C)C(=O)Nc2ccc3c(c2)OCO3)OCCCC[C@H](C)Oc2ccc(NC(=O)NC3CCCCC3)cc2C1=O
AC50 [10]: 9.97 µM (active)
